Test results: patent US8951527B2, “Radioprotectants targeting thrombospondin-1 and CD47” (The United States of America, as represented by the …, priority 2008, dated 2015)
“Also recorded” adds a separate entry of the source.

How the values were obtained:
HUVEC [1] = experiment: HUVEC cell viability after irradiation (MTT / CellTiter 96); assay type: cell-based, human; settings: for survival / cell death of irradiated HUVEC (MTT): 40 Gy or no radiation, 48 hours post radiation (FIG. 22); for cell viability after graded doses of peptide and radiation: peptide 1 hour before 0, 10, 20, 30, 40 Gray, 72 hours (FIG. 12)
Procedure: FIG. 11. Radioprotective activities of TSP1 and CD47 antibodies, a CD47 binding peptide from TSP1, and a CD47 morpholino. HUVEC were plated on 96-well plates in standard growth medium. Cells were treated with TSP1 (FIG. 11A) or CD47 (FIG. 11B) monoclonal antibodies (clone A6.1 or B6H12, respectively) and received the indicated doses of radiation 24 hours after addition of the antibodies. Cell (mitochondrial) viability was measured 48 hours post irradiation using an MTT assay. Cells were treated using peptide 7N3 (FIG. 11C) and control peptide 604 (FIG. 11D), subjected to the same experimental conditions, and assayed via MTT. […] Experiments were repeated 3 times and results presented as the mean±SD.
(§1) FIG. 12. Peptides 7N3 and C6d are radioprotective to HUVEC in culture. Human umbilical vein endothelial cells (HUVEC) grown in EGM medium in 96-well plates were treated with graded doses of a peptide agent, as indicated. One hour later, cells were exposed to a single dose of gamma radiation (0, 10, 20, 30, and 40 Gray) and allowed to incubate 72 hours at 37° C. Cell viability was determined with the CellTiter 96 AQueous One Solution Cell Proliferation Assay.
(§2) Cell Viability Assay. HUVEC were plated at a density of 5000 cells/well in 96 well plates (Nunc), and were treated 24 hours later with either the indicated doses of a CD47 antibody (B6H12), a TSP1 antibody (A6.1), the CD47-binding peptide 7N3, or control peptide 604. One hour later the cells were exposed to a single dose of gamma radiation (0, 10, 20, 30, and 40 Gy) and allowed to incubate another 72 hours at 37° C. Experiments done with B16E10 melanoma cells in Example 4 were done in a similar manner treating either 1 hour prior to a single dose of radiation (10 Gy) with peptide 7N3 or 48 hours prior with CD47 morpholino. Cell viability was determined using the CellTiter 96 Aqueous One Solution cell proliferation assay (Promega, Madison, Wis.) as per the manufacturer's instructions and absorbance at 490 nm was determined using an MR580 Microelisa AutoReader (Dynatech, Alexandria, Va.). The same assay was performed on HUVEC using either the CD47 or CD36 morpholino, but 48 hours were allowed to pass prior to radiation (0 or 40 Gy) to allow for suppression of the target proteins. Similarly, control experiments were performed using the nitric oxide synthase (NOS) inhibitor L-NAME, a membrane permeable cGMP analogue, 8-Bromo cGMP, or the NO donor DETA/NO.
as §1, with “In an additional experiment to test the effect of” for “FIG. 12. Peptides 7N3 and C6d are”, “peptides, human” for “to HUVEC in culture. Human”

HUVEC [2] = experiment: HUVEC proliferation post-radiation (BrdU incorporation); assay type: cell-based, human; settings: treated 48 hours before 10 Gy, over 1 week (FIG. 14)
Procedure: FIG. 14. TSP1 and CD47 antibodies or antisense suppression of CD47 maintain proliferation of irradiated HUVEC. HUVEC were plated in 96-well plates in growth medium and treated with CD47 morpholino (FIG. 14A; *p<0.05, #p<0.01) TSP1, or CD47 antibodies (FIG. 14B; *p<0.05, #p<0.01) and exposed to 10 Gy irradiation 48 hours later. Cell proliferation at the indicated times post-radiation was determined by intracellular BrdU incorporation. Experiments were repeated 3 times, and results presented as the mean±SD.
FIG. 15. HUVEC protected by radioprotective agents are both viable and proliferate at a better rate than untreated cells in culture. Proliferation was assessed by quantifying incorporation of bromodeoxyuridine (BrdU) into newly synthesized DNA using a BrdU Cell Proliferation Assay. HUVEC were seeded into 96 well plates for 24 hours at 37° C., then treated with either antibody A6.1 or B6H12 or peptide 7N3. The treated cells were irradiated at 40 Gy 1 hour later. Control and irradiated plates were assayed for BrdU uptake over 96 hours post-radiation. The assay was performed according to the manufacturer's protocol, and the plates were read at 420 nm.
Cell proliferation assay: Proliferation was assessed by quantifying incorporation of bromodeoxyuridine (BrdU) into newly synthesized DNA using a BrdU Cell Proliferation Assay (Calbiochem, La Jolla, Calif.). Primary murine wild type, TSP1, TSP2, and CD47 null lung endothelial cells were seeded into 96 well plates at 5×10^4 cells/well density. After 24 hours incubation at 37° C. treatment groups were irradiated at 40 Gy. Control and irradiated plates were assayed for BrdU uptake over 24 hours starting at 48 to 168 hours post-radiation. The assay was performed according to the manufacturer's protocol, and the plates were read at 420 nm.
Proliferative capacities were also determined in endothelial cells exposed to high doses of radiation of 40 Gy. […] The assay was performed according to the manufacturer's protocol, and the plates were read at 420 nm.

HAVSMC = HAVSMC cell viability after irradiation (CellTiter 96); assay type: cell-based, human; settings: greater doses of radiation (FIG. 13)
Procedure: FIG. 13. Peptide 7N3 is radioprotective to HAVSMC in culture. Human aortic vascular smooth muscle cells (HAVSMC) were also subjected to the CellTiter 96 Aqueous One Solution cell proliferation assay (Promega, Madison, Wis.).
as §2, with “Similarly, control experiments were performed using the nitric oxide synthase (NOS) inhibitor L-NAME, a membrane permeable cGMP analogue, 8-Bromo cGMP, or the NO donor DETA/NO.” left out

B16F10 melanoma cells = experiment: B16F10 melanoma cell viability after irradiation in vitro; assay type: cell-based, mouse; settings: 7N3 1 hour or morpholino 48 hours before 10 Gy, versus untreated cells
Procedure: FIG. 19. CD47 suppression enhances re-growth delay in irradiated syngeneic B16 melanoma and squamous cell carcinoma tumors but increases radioresistance of B16 cells in vitro. C57BL/6 mice were injected with 1×10^6 B16 mouse melanoma cells into their right hindlimbs. Five days later, the mice were randomized into 4 groups (12 mice in each group) where they either received injections of CD47 morpholino (10 μM) in sterile PBS, PBS, or no injection. The two groups receiving injections were then subjected to radiation (10 Gy) to the effected hindlimb 48 hours later. The other two groups served as controls and consisted of tumor alone or tumor subjected to only the morpholino. Tumors were followed post-radiation for 30 days, measuring their volume every 6 days (FIG. 19A). […] Cell (mitochondrial) viability was measured 48 hours post radiation using the MTT assay.
Cell Viability Assay. […] Cell viability was determined using the CellTiter 96 Aqueous One Solution cell proliferation assay (Promega, Madison, Wis.) as per the manufacturer's instructions and absorbance at 490 nm was determined using an MR580 Microelisa AutoReader (Dynatech, Alexandria, Va.). […]
Irradiation of cells. […] The dose rate at 50 cm from the x-ray source was 242 cGy/minute, as determined by multiple thermo luminescent dosimeter readings.

C57BL/6 wild type mice = experiment: Hindlimb irradiation (25 Gy), skin reaction / tissue necrosis grading and histology; assay type: in vivo, mouse; settings: 10 μM in 750 μl PBS local-regional, 48 hours before 25 Gy, 8 weeks
Procedure: FIG. 16. CD47 suppression using an antisense morpholino minimizes tissue damage from radiation injury. Age and sex matched C57BL16 wild type mice underwent a one-time treatment of the right hindlimb with either a murine specific CD47 morpholino oligonucleotide (10 μM in 750 μl PBS) or 750 μl of PBS injected local-regionally to the muscle and soft tissues. […] At the end of 8 weeks, there was a considerable amount of alopecia, dry desquamation and early signs of fibrotic contractures within the irradiated hind limbs of mice receiving only PBS. […] The tissue necrosis grading scores for 8 animals are presented as mean±SD (FIG. 16B) and show a similar trend throughout the 8-week observation period.
Skin reaction: Skin reaction following hind limb irradiation was quantified every week following treatment for 8 weeks using a previously described grading system (Flanders et al., Am J Pathol 163:2247-2257, 2003). The grading system consisted of 5 categories: normal, hair loss, erythema, dry desquamation and moist desquamation/ulceration.
Irradiation of mice: Age and sex matched wild type mice underwent local irradiation to the right hindlimb as described in Example 1. Forty-eight hours prior to irradiation, animals received the CD47 morpholino (SEQ ID NO: 4), a control morpholino (SEQ ID NO: 5) (both at 10 μM in […] PBS via intramuscular injection), vehicle, or no treatment to the hind limb. Under 1% isoflurane inhalation anesthesia, the animals were placed in customized Lucite jigs that allow for immobilization and selective irradiation of the right hindlimb. A single radiation dose of 25 Gy was delivered by a Therapax® DXT300 X-ray irradiator (Pantak, Inc., East Haven, Conn.) using 2.0-mm A1 filtration (300 kVp) at a dose rate of 2.53 Gy/min. Care was taken to avoid irradiation of other body parts by using lead shields specifically designed as a part of the jigs. After irradiation, the animals were placed in cages as indicated above and observed weekly. Skin reaction after hind limb irradiation was quantified every week after treatment for 8 weeks using a previously described grading system (Flanders et al., Am J. Pathol 163:2247-2257, 2003). Briefly, tissue necrosis grading system consists of 5 categories: normal, hair loss, erythema, dry desquamation, and moist desquamation/ulceration.
Age and sex matched C57BL16 wild type mice underwent a one-time treatment of the right hindlimb with the CD47 antisense morpholino oligonucleotide (10 μM in 750 μl PBS), a mismatched control morpholino, or vehicle (PBS) injected local-regionally to the muscle and soft tissues.

Q: NCCN(CCN)/[N+]([O-])=N/O [DETA/NO, reference compound] was tested. Which “survival / cell death of irradiated HUVEC (MTT)” value (HUVEC [1]) did it give?
A: did not confer a significant survival advantage

Q: For Nc1nc2c(nc(Br)n2[C@@H]2O[C@@H]3COP(=O)(O)O[C@H]3[C@H]2O)c(=O)[nH]1 [cell permeable cGMP analog, 8-Bromo cyclic guanine monophosphate, reference compound], which “survival / cell death of irradiated HUVEC (MTT)” value (HUVEC [1]) is on record?
A: did not confer a significant survival advantage

Q: Which results are given for “CD36 morpholino: antisense morpholino specific for the TSP1 receptor CD36 (antisense ATGGGCTGTGACCGGAACTGTGGGC; all phosphorodiamidate morpholino (PMO)) [reference compound]”?
A: cell viability post radiation after morpholino pretreatment (HUVEC [1]; morpholino 48 hours before radiation (FIG. 11E, F)): no radioprotection; also recorded: decrease in cellular viability similar to that of untreated cells; proliferation (BrdU incorporation / DNA synthesis) after 10 Gy (HUVEC [2]): not seen

Q: Which “cell viability after graded doses of peptide and radiation” value (shortened to “cell viability after graded doses”) (HUVEC [1]) does the source give for “FIRGGMYEGKK [compound 604, control peptide, reference compound]” here?
A: virtually no protection

Q: FIRVVMYEGKK [7N3] was tested. Which “cell (mitochondrial) viability post irradiation” value (HUVEC [1]; antibody or peptide before radiation, 0-40 Gy (FIG. 11A-D)) did it give?
A: enhanced cell survival post-irradiation

Q: What about the “cell viability after graded doses” value (HUVEC [1]) of the same compound?
A: protective effect

Q: And the “cell viability after radiation” value (HAVSMC)?
A: profound radioprotective protective effect

Q: What about the “cell viability after 10 Gy” value (B16F10 melanoma cells) of the same compound?
A: mild radioprotective effect

Q: Which “cell viability after graded doses” value (HUVEC [1]) does the source give for “HIGWKDFTAYRWRLS [C6d, radioprotective peptide]” here?
A: protective effect

Q: Which results are given for “control morpholino: mismatched control morpholino from GeneTools (CGTGACAGCCACGACCGACTGCGCA; all phosphorodiamidate morpholino (PMO)) [reference compound]”?
A: proliferation (BrdU incorporation / DNA synthesis) after 10 Gy (HUVEC [2]): not; skin reaction / tissue damage of irradiated hindlimb (C57BL/6 wild type mice): significant alopecia, dry and wet desquamation, and tissue ulceration with fibrous contracture
